Measured values published in publication PMC10783514, “Synthesis of peptide–siRNA conjugates via internal sulfonylphosphoramidate modifications and evaluation of their in vitro activity” (Nucleic Acids Research, 2023).

Target: T1, human GLP1R (Homo sapiens, UniProt P43220)
T1 construct: expressed in transfected cells
Test: GLP1R activity assay (CRE/luciferase reporter, cAMP potency)
Format: cell-based
Details: BHK cells stably co-expressing human GLP1R and CRE luciferase reporter; 3 h at 37°C; 8 concentrations; four-parameter logistic fit (Hill slope = 1); mean of n = 3 independent experiments; read-out: EC50, activation of GLP1R
Procedure: GLP1R activity was measured through cyclic adenosine monophosphate (cAMP) potency using a clonal BHK cell line that stably co-express human GLP1R and the cAMP response element (CRE) luciferase reporter gene, essentially as previously reported ([33]). Briefly, frozen stocks of assay-ready cells were thawed to 37°C, washed once with PBS, and diluted to 100 000 cells/ml in assay buffer (DMEM without phenol red supplemented with 1× GlutaMAX, 10 mM HEPES, 1 w/v% ovalbumin, and 0.1 v/v% Pluronic F-68). Serial dilutions (10-fold dilutions in assay buffer, 8 concentrations for each compound) were made for GLP1–siRNA conjugates and free peptides in 96 well dilution plates using a Biomek i7 liquid handler. Then, 50 μl of each dilution were transferred to 96-well assay plates to which 50 μl of the diluted cell suspension was added (5000 cells/well). Plates were incubated for 3 h at 37°C in 5% CO2, then left at room temperature for 5 min before 100 μl SteadyLite Plus (PerkinElmer) was added to each well. Plates were sealed from light and incubated at room temperature for 30 min while gently shaking before luminescence was detected on a Biotek Synergy 2 plate reader.
This is performed by using a luciferase reporter under the control of CRE in recombinant BHK cells constitutively expressing human GLP1R. […]

T1 sequence (P43220 24-463): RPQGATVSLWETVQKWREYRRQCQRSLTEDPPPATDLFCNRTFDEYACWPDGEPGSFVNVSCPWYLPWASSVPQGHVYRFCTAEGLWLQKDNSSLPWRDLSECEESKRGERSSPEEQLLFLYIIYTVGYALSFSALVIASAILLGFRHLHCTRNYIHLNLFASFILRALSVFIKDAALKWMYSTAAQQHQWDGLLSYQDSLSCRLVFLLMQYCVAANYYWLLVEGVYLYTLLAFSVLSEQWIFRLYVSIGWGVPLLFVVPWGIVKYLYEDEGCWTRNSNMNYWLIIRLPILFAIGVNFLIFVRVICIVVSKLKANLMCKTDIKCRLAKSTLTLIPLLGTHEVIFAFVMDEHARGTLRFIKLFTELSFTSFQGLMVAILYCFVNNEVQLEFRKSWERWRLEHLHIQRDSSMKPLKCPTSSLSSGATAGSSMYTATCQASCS

EC50: 9 pM
Compound: CC[C@H](C)[C@H](NC(=O)[C@H](Cc1ccccc1)NC(=O)[C@H](CCC(=O)O)NC(=O)[C@H](CCCNC(=N)N)NC(=O)[C@H](C)NC(=O)[C@H](C)NC(=O)[C@H](CCC(N)=O)NC(=O)CNC(=O)[C@H](CCC(=O)O)NC(=O)[C@H](CC(C)C)NC(=O)[C@H](Cc1ccc(O)cc1)NC(=O)[C@H](CO)NC(=O)[C@H](CO)NC(=O)[C@@H](NC(=O)[C@H](CC(=O)O)NC(=O)[C@H](CO)NC(=O)[C@@H](NC(=O)[C@H](Cc1ccccc1)NC(=O)[C@@H](NC(=O)CNC(=O)[C@H](CCC(=O)O)NC(=O)[C@H](C)NC(=O)[C@@H](N)Cc1c[nH]cn1)[C@@H](C)O)[C@@H](C)O)C(C)C)C(=O)N[C@@H](C)C(=O)N[C@@H](Cc1c[nH]c2ccccc12)C(=O)N[C@@H](CC(C)C)C(=O)N[C@H](C(=O)N[C@@H](CCCNC(=N)N)C(=O)NCC(=O)N[C@@H](CCCNC(=N)N)C(=O)NCC(=O)N[C@@H](CCCCN)C(=O)O)C(C)C [A]
